# US4163662A, “Liquid formulations of 1-(3,4-dichlorophenyl)-3-methoxy-3-methylurea and selected chloroacetamides” (E. I. Du Pont de Nemours and Company, priority 1977, dated 1979)
# Columns and labels:
# Type in all cases: physicochemical
# [1] = Amount of insoluble crystalline material after room temperature storage (Tables III, IV, V)
# Description: Samples weighing 5 grams each total weight were prepared by mixing the indicated solids and liquids, in the indicated proportions and shaking in closed vials, which were sealed with epoxy cement to prevent evaporation.
# Tables III, IV, and V show the proportions of each mixture and the amounts of insoluble, crystalline material observed in each case after room temperature storage: […]
# [2] = Cold Storage Test at -5° C., propachlor/linuron in trichloroethylene (Table I); conditions: for Max. Stable concentration (no crystallization) / Min. Unstable concentration (crystals first appear): total active ingredient
# Text: The temperature limits below which crystallization of solute will occur can be measured by storing samples in a controlled temperature chest, seeding with tiny crystals of pure materials and observing the growth or disappearance of crystals after a period of several days. If no crystals form, the process is then repeated at a lower temperature, until the limit of stability has been found. However, crystallization characteristics can be also meaningfully, rapidly and conveniently measured by a determination of the cloud point of the system.
# (§1) Purified linuron, purified propachlor, purified alachlor and commercial "Triclene" (trichloroethylene, technical) are used in the procedure. Samples containing various ratios and concentrations of linuron, propachlor, and linuron-propachlor mixtures are placed in a cold chest. The temperature is lowered and samples are seeded with traces of dust of the active ingredients after the solution has been cooled to the test temperature of -5° C. The samples are then observed over the course of at least 3 to 4 days to determine whether crystallization has occurred. When the temperature of the system is maintained within the range of -4.5° to -5.0° C. for 4 days after seeding. The maximum solution concentration in grams of active ingredient per 100 grams of solvent, at which no crystallization occurs (Max. Stable), and the minimum solution concentration at which crystals first appear (Min. Unstable) are observed.
# [3] = Cold Storage Test at 3° C. and at -8° to -9° C., alachlor/linuron (Table II); conditions: for Max. Stable concentration / Min. Unstable concentration: total active ingredient
# Description: as §1
# A similar test was run replacing propachlor with alachlor and at ^+ 3° C. and at -8° to -9° C. with the following results: […]
SMILES,"crystalline material ([1]; 5 weight % linuron, 95% tetrachloroethylene, room temperature)","crystalline material ([1]; 9 weight % linuron, 91% tetrachloroethylene, room temperature)","crystalline material ([1]; 9 weight % linuron, 91% xylene, room temperature)","crystalline material ([1]; 10 weight % linuron, 90% ""Panasol"" AN-3, room temperature)","crystalline material ([1]; 15 weight % linuron, 85% ""Panasol"" AN-3, room temperature)","crystalline material ([1]; 17 weight % linuron, 83% xylene, room temperature)","dissolution result on shaking in the solvent ([1]; hydrocarbons and halocarbons, room temperature)","Max. Solubility Range, Linuron [2]",Max. Stable concentration (no crystallization) [2],Min. Unstable concentration (crystals first appear) [2],Max. Solubility Range For Linuron ([3]; 3° C.),Max. Stable concentration ([3]; 3° C.),Min. Unstable concentration ([3]; 3° C.),Max. Solubility Range For Linuron ([3]; -8° to -9° C.),Max. Stable concentration ([3]; -8° to -9° C.),Min. Unstable concentration ([3]; -8° to -9° C.),"crystalline material ([1]; 18 weight % propachlor, 82% tetrachloroethylene, room temperature)","crystalline material ([1]; 30 weight % propachlor, 70% ""Panasol"" AN-3, room temperature)","crystalline material ([1]; 34 weight % propachlor, 66% xylene, room temperature)","Max. Solubility Range, Propachlor [2]"
"CON(C)C(=O)Nc1ccc(Cl)c(Cl)c1 [Linuron, 1-(3,4-dichlorophenyl)-3-methoxy-3-methylurea]",moderate,heavy,slight,moderate,heavy,heavy,crystals remained,4.1-5.2 grams/100 grams Solvent,4.1 grams/100 grams Solvent,5.2 grams/100 grams Solvent,4.1-4.7 grams/100 grams Solvent,4.1 grams/100 grams Solvent,4.7 grams/100 grams Solvent,3.6-4.1 grams/100 grams Solvent,3.6 grams/100 grams Solvent,4.1 grams/100 grams Solvent,,,,
"CC(C)N(C(=O)CCl)c1ccccc1 [Propachlor, 2-chloro-N-isopropylacetanilide]",,,,,,,,,21.9 grams/100 grams Solvent,25 grams/100 grams Solvent,,,,,,,moderate,moderate,moderate,21.9-25 grams/100 grams Solvent
